Results on nine compounds are retold here after PubChem BioAssay (NCI).

The structures appear in SMILES notation.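 Cultured in 96-well plates, cells were exposed to test compound for 48 hours across five concentrations. Here, GI50 denotes the concentration required for 50% inhibition of growth. TGI: concentration producing complete growth inhibition.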

Some test systems named below: RPMI-8226 leukemia; HS 578T breast; M14 melanoma; MALME-3M melanoma; TK-10 renal; A498 renal; SW-620 colon; PC-3 prostate; SNB-75 CNS; UACC-62 melanoma.
Assay in all cases: NCI anticancer screen, dose series, 48 h

As to `C[C@]12C[C@H](CCCCCCNCCOC(=O)NCCCc3ccc(N(CCCl)CCCl)cc3)C3=C4CCC(=O)C=C4CCC3C1CC[C@@H]2O` (some centres not stated), the GI50 with RPMI-8226 leukemia is 0.304 µM; in the assay on HS 578T breast, 1.66 µM; with M14 melanoma, 2.9 µM; in the assay with MALME-3M melanoma it was 2.29 µM; in the assay with TK-10 renal, 1.85 µM; in the assay with A498 renal, 1.93 µM. The GI50 in the assay with SW-620 colon was 1.2 µM; in the assay with PC-3 prostate it was 1.17 µM; in the assay with SNB-75 CNS, 1.46 µM. Also, the TGI in the assay with RPMI-8226 leukemia was found to be 1.06 µM; with HS 578T breast it was 4.61 µM; in the assay on M14 melanoma, 7.29 µM; with MALME-3M melanoma it was 5.15 µM; in the assay with TK-10 renal, 4.49 µM; in the assay with A498 renal it was 3.56 µM. The TGI in the assay on SW-620 colon turned out to be 4.07 µM; in the assay with SNB-75 CNS, 2.91 µM.
For `CCOC(=O)/C(C=Nc1ccc(-c2nc3ccccc3[nH]2)cc1)=C(/C)O`, the GI50 with UACC-62 melanoma was 8.59 µM; with RPMI-8226 leukemia it was 8.12 µM; in the assay with HS 578T breast it was 11.4 µM; in the assay on M14 melanoma, 12.7 µM; in the assay on TK-10 renal it was 25.4 µM; in the assay on SW-620 colon, 11.7 µM. For the same compound, the GI50 in the assay with PC-3 prostate was 27.2 µM. Also, the TGI is 17.6 µM with UACC-62 melanoma; 40.1 µM in the assay on RPMI-8226 leukemia; 30.5 µM in the assay on HS 578T breast; 32 µM in the assay on M14 melanoma; above 50 µM in the assay with TK-10 renal; 22.7 µM in the assay with SW-620 colon. The compound further came in with a TGI with PC-3 prostate above 50 µM.
For `CCCCCCCCNc1cc2c3c(c1)CCCN3CCC2`, the GI50 in the assay on UACC-62 melanoma was 2.16 µM; in the assay on RPMI-8226 leukemia it was 5.55 µM; in the assay on M14 melanoma it was 2.5 µM; with MALME-3M melanoma, 2.05 µM; in the assay on TK-10 renal, 5.69 µM; in the assay on A498 renal, 4.2 µM. For the same compound, the GI50 was 2.14 µM in the assay with SW-620 colon, 0.926 µM in the assay with PC-3 prostate and 1.47 µM in the assay on SNB-75 CNS. In addition, the TGI in the assay with UACC-62 melanoma was 16.4 µM; in the assay on RPMI-8226 leukemia it was above 100 µM; in the assay with M14 melanoma, 13.6 µM; in the assay on MALME-3M melanoma, 8.53 µM; with TK-10 renal it was 22 µM; in the assay on A498 renal, 18.7 µM. Further, the TGI amounted to 13.3 µM in the assay on SW-620 colon, 12.8 µM with PC-3 prostate and 10.8 µM in the assay with SNB-75 CNS.
With `OC(Cc1ccncc1)C(Cl)(Cl)Cl` (configuration not stated), the GI50 is above 100 µM in the assay with UACC-62 melanoma; 0.0586 µM with RPMI-8226 leukemia; above 100 µM with HS 578T breast; above 100 µM in the assay on M14 melanoma; above 100 µM in the assay with MALME-3M melanoma; above 100 µM with TK-10 renal. The GI50 is above 100 µM in the assay on SW-620 colon, 21.8 µM in the assay on PC-3 prostate and above 100 µM in the assay on SNB-75 CNS. The TGI with UACC-62 melanoma, in the assay with RPMI-8226 leukemia, with HS 578T breast, with M14 melanoma, in the assay on MALME-3M melanoma and in the assay with TK-10 renal was above 100 µM in each case. Further, the TGI in the assay with SW-620 colon, in the assay with PC-3 prostate and in the assay on SNB-75 CNS was above 100 µM in each case.
Consider `C=C1C(=O)O[C@H]2[C@H]1CC/C(COC(=O)CSCSCC(=O)OC/C1=C/CC[C@@]3(C)O[C@H]3[C@H]3OC(=O)C(=C)[C@@H]3CC1)=C\CC[C@@]1(C)O[C@@H]21`, for which the GI50 in the assay with UACC-62 melanoma was 1.88 µM; in the assay with RPMI-8226 leukemia, 0.597 µM; in the assay on HS 578T breast, 4.88 µM; with M14 melanoma, 1.55 µM; in the assay with MALME-3M melanoma it was 1.58 µM; in the assay on TK-10 renal, 1.92 µM. In addition, the GI50 is 3.83 µM with A498 renal, 1.41 µM in the assay on SW-620 colon and 1.86 µM in the assay on PC-3 prostate. The TGI amounted to 4.03 µM in the assay on UACC-62 melanoma; 3.71 µM in the assay on RPMI-8226 leukemia; 64.2 µM with HS 578T breast; 3.22 µM with M14 melanoma; 3.29 µM in the assay with MALME-3M melanoma; 3.67 µM with TK-10 renal. Besides, the TGI with A498 renal amounted to 14.8 µM; in the assay on SW-620 colon, 3.26 µM; in the assay with PC-3 prostate, 4.14 µM.
For `N=C1C(c2nc3ccccc3s2)=C(O)CN1c1ccc(F)c(Cl)c1`, the GI50 with UACC-62 melanoma is 16.8 µM; in the assay on RPMI-8226 leukemia it was 18.9 µM; with HS 578T breast, 22.9 µM; in the assay with M14 melanoma, above 100 µM; in the assay on TK-10 renal, 22.7 µM; with A498 renal, 31.2 µM. The GI50 is 58.7 µM in the assay with SW-620 colon, 4.04 µM in the assay with PC-3 prostate and 13 µM in the assay with SNB-75 CNS. Moreover, the TGI in the assay on UACC-62 melanoma was 52.7 µM; with RPMI-8226 leukemia it was above 100 µM; in the assay on HS 578T breast, 64.5 µM; in the assay with M14 melanoma, above 100 µM; in the assay with TK-10 renal it was above 100 µM; in the assay on A498 renal it was 73.2 µM. Moreover, the values for the TGI in the assay on SW-620 colon, in the assay with PC-3 prostate and in the assay with SNB-75 CNS were above 100 µM, 30.8 µM and 51.4 µM, respectively.
As for `CCOc1cccc(/C=N/N=C2\C(=O)Nc3c(Cl)cc(Cl)cc32)c1O`, the TGI in the assay with UACC-62 melanoma, in the assay on HS 578T breast, with M14 melanoma, in the assay with MALME-3M melanoma, in the assay on TK-10 renal and in the assay with A498 renal was above 100 µM in each case. Moreover, the TGI in the assay on SW-620 colon is above 100 µM; in the assay with PC-3 prostate, above 100 µM; in the assay with SNB-75 CNS, 89.6 µM.
For `COC12C=C/C(=C(/C(=O)OCc3cncnc3)C(=O)CCCCCCCCC3(OC)C=C/C(=C(/C(=O)OCc4cncnc4)C(=O)CCCCCCCC1)O3)O2`, the GI50 in the assay with UACC-62 melanoma was 0.533 µM; in the assay on RPMI-8226 leukemia, 0.207 µM; with HS 578T breast, 1.3 µM; in the assay on M14 melanoma it was 0.167 µM; in the assay on TK-10 renal it was 0.689 µM; in the assay with A498 renal, 0.961 µM. The figures for the GI50 with SW-620 colon and in the assay with SNB-75 CNS were 0.19 µM and 1.19 µM, respectively. The TGI with UACC-62 melanoma came out at 1.21 µM; in the assay on RPMI-8226 leukemia, 3.55 µM; with HS 578T breast, 6.24 µM; in the assay with M14 melanoma, 1.61 µM; with TK-10 renal, 1.93 µM; in the assay with A498 renal it was 1.7 µM. Also, the TGI worked out at 1.19 µM in the assay with SW-620 colon and 6.84 µM with SNB-75 CNS.
For the compound `C=C1C(=O)O[C@@H]2C[C@@H](C)[C@@H]3C=CC(=O)[C@@]3(C)[C@@H](O)[C@H]12`, the TGI came to 5.46 µM with UACC-62 melanoma; 2.81 µM in the assay on RPMI-8226 leukemia; 5.63 µM in the assay with M14 melanoma; 3.87 µM in the assay with MALME-3M melanoma; 11.8 µM in the assay with TK-10 renal; 3.52 µM in the assay with A498 renal. Moreover, the TGI in the assay on SW-620 colon stood at 2.59 µM; in the assay on PC-3 prostate it was 7.22 µM; with SNB-75 CNS it was 2.58 µM.
